Reference: ChEMBL document CHEMBL1151779, “Exploration of a fundamental substituent effect of alpha-ketoheterocycle enzyme inhibitors: Potent and selective inhibitors of fatty acid amide hydrolase” (Bioorg Med Chem Lett, 2008)
pIC50: −log10 of the molar value.

Columns and labels:
Liver carboxylesterase 1 = target: T1, Liver carboxylesterase 1 (Homo sapiens, UniProt P23141); assay: Inhibition of TGH
T1 sequence (P23141 whole entry): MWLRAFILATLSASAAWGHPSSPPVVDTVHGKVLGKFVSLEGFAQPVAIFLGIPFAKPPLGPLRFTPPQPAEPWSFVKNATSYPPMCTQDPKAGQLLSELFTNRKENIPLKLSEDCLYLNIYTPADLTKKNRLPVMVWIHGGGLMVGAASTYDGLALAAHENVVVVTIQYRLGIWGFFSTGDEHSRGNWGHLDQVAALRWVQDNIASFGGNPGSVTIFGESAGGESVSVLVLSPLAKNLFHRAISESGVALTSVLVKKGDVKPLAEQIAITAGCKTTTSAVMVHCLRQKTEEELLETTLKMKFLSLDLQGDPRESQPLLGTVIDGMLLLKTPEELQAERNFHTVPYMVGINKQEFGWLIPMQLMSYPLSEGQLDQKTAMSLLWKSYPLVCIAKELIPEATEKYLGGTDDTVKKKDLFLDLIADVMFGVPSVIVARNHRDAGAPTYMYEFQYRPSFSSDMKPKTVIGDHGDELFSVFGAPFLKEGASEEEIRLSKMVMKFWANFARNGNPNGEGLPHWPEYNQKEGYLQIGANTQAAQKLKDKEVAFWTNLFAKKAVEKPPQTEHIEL

[1] = target: T2, Fatty-acid amide hydrolase 1 (Rattus norvegicus, UniProt P97612); assay: Inhibition of rat FAAH
T2 sequence (P97612 whole entry): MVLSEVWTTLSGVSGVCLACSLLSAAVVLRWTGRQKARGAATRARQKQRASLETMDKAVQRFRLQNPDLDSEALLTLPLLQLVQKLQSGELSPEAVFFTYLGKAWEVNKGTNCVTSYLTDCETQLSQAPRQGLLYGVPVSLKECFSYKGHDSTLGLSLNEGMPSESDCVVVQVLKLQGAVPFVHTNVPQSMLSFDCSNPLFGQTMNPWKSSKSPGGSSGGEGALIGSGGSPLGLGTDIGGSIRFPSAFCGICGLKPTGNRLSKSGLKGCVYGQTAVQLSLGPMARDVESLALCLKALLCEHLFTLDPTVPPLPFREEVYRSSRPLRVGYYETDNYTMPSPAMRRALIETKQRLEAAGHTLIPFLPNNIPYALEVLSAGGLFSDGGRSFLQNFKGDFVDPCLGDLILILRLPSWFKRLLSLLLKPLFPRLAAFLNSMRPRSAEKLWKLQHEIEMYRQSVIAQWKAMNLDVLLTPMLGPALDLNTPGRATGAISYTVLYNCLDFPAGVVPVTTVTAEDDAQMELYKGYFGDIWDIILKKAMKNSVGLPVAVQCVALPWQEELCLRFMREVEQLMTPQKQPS

[2] = target: T3, Neutral cholesterol ester hydrolase 1 (Homo sapiens, UniProt Q6PIU2); assay: Inhibition of KIAA1363
T3 sequence (Q6PIU2 whole entry): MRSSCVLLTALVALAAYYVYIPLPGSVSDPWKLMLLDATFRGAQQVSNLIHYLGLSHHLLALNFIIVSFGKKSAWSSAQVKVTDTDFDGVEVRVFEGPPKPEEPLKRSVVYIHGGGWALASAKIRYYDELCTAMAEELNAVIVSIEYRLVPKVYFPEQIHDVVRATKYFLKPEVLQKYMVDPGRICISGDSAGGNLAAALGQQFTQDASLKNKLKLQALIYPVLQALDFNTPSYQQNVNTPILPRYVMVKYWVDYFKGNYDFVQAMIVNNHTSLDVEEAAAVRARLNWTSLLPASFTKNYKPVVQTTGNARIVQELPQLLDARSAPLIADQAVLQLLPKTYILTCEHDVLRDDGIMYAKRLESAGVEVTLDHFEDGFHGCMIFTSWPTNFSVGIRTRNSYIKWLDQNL

[3] = Selectivity ratio of IC50 for KIAA1363 to IC50 for rat FAAH
[4] = Selectivity ratio of IC50 for TGH to IC50 for rat FAAH

pIC50 (Liver carboxylesterase 1) | pIC50 [1] | pIC50 [2] | Ratio IC50 [3] | Ratio IC50 [4] | SMILES
5.00 | 7.52 | < 4.00 | 25 | 330 | O=C(CCCCCCc1ccccc1)c1nc(-c2ccccn2)co1
 | 6.05 |  | > 100 | > 100 | O=C(O)c1cnc(C(=O)CCCCCCc2ccccc2)o1
7.52 | 7.70 | 4.52 | > 700 | 1.5 | N#Cc1coc(C(=O)CCCCCCc2ccccc2)n1

The next lines start with the molecule.

SMILES | pIC50 (Liver carboxylesterase 1) | pIC50 [1] | pIC50 [2] | Ratio IC50 [3] | Ratio IC50 [4]
O=C(CCCCCCc1ccccc1)c1nc(C(F)(F)F)co1 | 7.22 | 6.40 | 5.00 | > 200 | 
O=C(O)c1coc(C(=O)CCCCCCc2ccccc2)n1 | 5.60 | 6.30 | < 4.00 | > 3000 | 5
O=C(CCCCCCc1ccccc1)c1nc(-c2ccncc2)co1 | 6.15 | 6.85 | < 4.00 | 1500 | 5
O=C(CCCCCCc1ccccc1)c1ncc(C(F)(F)F)o1 |  | 7.15 |  | > 1400 | 3
